In patent US20170224679A1, “Use of CXCR2 Antagonists For The Prevention and/or Treatment of Chemotherapy Induced Peripheral Neuropathy (CIPN)” (GlaxoSmithKline Intellectual Property Development Limited, priority 2014, published 2017):

What was measured:
[1] = target: T1, CXCR2 receptor (Homo sapiens, UniProt P25025); assay: CXCR2 Tango assay; assay type: cell-based; set-up: fused on or other part: TEV protease cleavage site and Gal4-VP16 transcription factor fused to the receptor (Invitrogen Tango construct); no part of the key; details: Tango reporter gene, 80 nM hCXCL1; read-out: pIC50 against the CXCR2 receptor (converted)
T1 sequence (P25025 1-360): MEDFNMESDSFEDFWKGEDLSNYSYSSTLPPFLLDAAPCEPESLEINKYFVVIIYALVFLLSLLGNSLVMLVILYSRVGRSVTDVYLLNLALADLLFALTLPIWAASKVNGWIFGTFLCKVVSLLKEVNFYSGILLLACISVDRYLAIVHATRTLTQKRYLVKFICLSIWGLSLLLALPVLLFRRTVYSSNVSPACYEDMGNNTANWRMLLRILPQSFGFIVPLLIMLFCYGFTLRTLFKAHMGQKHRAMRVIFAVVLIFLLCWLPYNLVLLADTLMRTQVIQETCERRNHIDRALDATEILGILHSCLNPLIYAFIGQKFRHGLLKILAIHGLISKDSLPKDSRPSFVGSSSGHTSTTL
From the text: The assay measures ligand-induced activation of the receptor CXCR2 in a stable cell line containing the recombinant human CXCR2 linked to a TEV protease site and a Gal4-VP16 transcription factor (Invitrogen). Ligand binding to the receptor results in the recruitment of arrestin proteins (tagged with protease) to the receptor and triggers the release of a tethered transcription factor. The transcription factor enters the nucleus and activates the transcription of the reporter gene. The ability of a compound to inhibit CXCR2 activation is indirectly assessed by measuring the reporter gene activity.
A vial of cryopreserved cells was removed from liquid nitrogen and rapidly thawed in a water bath at 37° C. with gentle agitation. The cell contents were collected and resuspended in Assay Medium at a density of ˜200,000 cells/ml. All test compounds were dissolved in DMSO at a concentration of 10 mM and then were serially diluted to generate a 10-point dose response curve into 384-well assay plate (Greiner 781090) using an Echo (Labcyte) concentration-response program (50 nl/well). The cell-free, un-stimulated and positive controls were loaded with 50 nl/well pure DMSO to ensure that the DMSO concentration was constant across the plate for all assays. Using Multi-drop Combi (Thermo) with standard cassette, 50 μl of Assay Medium was added to cell-free control wells in compound-containing assay plate; 50 μl of the cell suspension without hCXCL1 (a CXCR2 ligand) was added to un-stimulated control wells (10,000 cells per well); and 50 μl of the cell suspension with 80 nM hCXCL1 was added to the rest of wells of the assay plate (10,000 cells per well). The cells were incubated overnight at 37° C./5% CO2·10 μl of 6× substrate mixture (LiveBLAzer™-FRET B/G substrate (CCF4-AM) Cat #K1096 from Invitrogen, Inc.) was added to each well using Multi-drop Combi (Thermo) with small-tube cassette and the plate was incubated at room temperature for 2 h in the dark. The plate was then read on EnVision using one excitation channel (409 nm) and two emission channels (460 nm and 530 nm).
The blue/green emission ratio (460 nm/530 nm) was calculated for each well by dividing the background-subtracted Blue emission values by the background-subtracted Green emission values. The dose response curve was based on sigmoidal dose-response model. All ratio data was normalized based upon the maximum emission ratio of positive control (hCXCL1) and minimum emission ratio of negative control (DMSO) on each plate.

[2] = target: T1, CXCR2 receptor; assay: Receptor binding assay ([125I] IL-8 SPA), CXCR2; set-up: expressed in transfected cells; host or cells: CHO cells (membranes)
Experimental: High levels of recombinant human CXCR1 and CXCR2 receptors were individually expressed in Chinese hamster ovary (CHO) cells as described in Holmes, et al., Science, 1991, 253, 1278, incorporated herein to the extent required to perform the present assay. The Chinese hamster ovary membranes were prepared according to Haour, et al., J. Biol. Chem., 249 pp 2195-2205 (1974), incorporated herein to the extent required to perform the present assay, except that the homogenization buffer was changed to 40 mM Tris-HCL pH 7.5 containing 1 mM MgSO4, 0.5 mM EDTA (ethylene-diaminetetra-acetic acid), 1 mM PMSF (α-toluene-sulphonyl fluoride), 2.5 mg/L Leupeptin and 0.1 mg/ml Aprotinin. Membrane protein concentration was determined using Bio-Rad Reagent using bovine serum albumin as a standard. All binding assays were conducted using Scintillation Proximity Assay (SPA assay) using wheatgerm agglutinin beads in a 96-well micro plate (optiplate 96, Packard) format. The CHO-CXCR2 and CHO-CXCR1 membranes were pre-incubated with the beads in binding buffer; 20 mM Bis Tris propane, pH 8 containing 25 mM NaCl, 1 mM MgSO4, 0.1 mM EDTA at 4° C. for 30 min prior to assay. The compound was diluted in 100% DMSO at 20 times the final concentration (final 1 nM to 1000 nM and 5% DMSO). […] At the end of the incubation the plates were spun for 5 min at 2000 RPM, and counted in a Top Count counter.

[3] = tested on: Sprague-Dawley rats; assay: CXCR2 antagonist effect on oxaliplatin-induced acute sensory injury rat (PWT, von Frey); assay type: in vivo
Experimental: If the animal withdrew or lifted the paw upon stimulation, then a hair with force immediately lower than that tested was used. If no response was observed, then a hair with force immediately higher was tested.

[4] = target: T1, CXCR2 receptor; assay: Human whole blood assay version i) (CD11b, CXCL1 stimulated); assay type: cell-based; set-up: Assay d) measures the cellular functional activity to the native expressed human CXCR2 in whole blood; endogenous in cells; host or cells: human whole blood (neutrophils); details: 10 nM CXCL1, neutrophil CD11b, read-out: pIC50 against the CXCR2 receptor (converted)
Experimental: Human blood was obtained from healthy consenting adults by trained medical professionals by venipuncture in a 10 ml syringe containing 225 μI of 0.25 M EDTA and filling with 7 ml of blood (maintained at 37° C. throughout the CXCL1 stimulation).
The test compounds were dissolved in 100% DMSO to a concentration of 10 mM and diluted to 12× the assay concentration in 1.2% DMSO (final concentration DMSO of 0.1%).
Assay: 100 μI of whole blood was added to assay tubes or 96 well U-bottom clear plates containing 10 μI of 1.2% DMSO (assay concentration of 0.1%) or 10 μI of compound dissolved in 1.2% DMSO (assay concentration range of 0.1 μM to 10 μM), then incubated for 10 minutes at 37° C., followed by addition of 10 μI of 0.1% BSA in DPBS (negative controls) or 10 μI of 120 nM CXCL1 (GROα, Prepro Tech, Inc) dissolved in 0.1% BSA in DPBS (assay concentration of 10 nM which is the EC80 for CXCL1) and incubated at 37° C. for an additional 10 min with gentle agitation before being placed on ice and assay terminated by adding 250 μI of CellFix or 250 μI of 3.7% v/v paraformaldehyde (BD Biosciences). […] Before being analyzed using an LSR flow cytometer (Becton-Dickinson) or FACS Canto II, cells were stained for 10 minutes at 4° C. with 10 μI of LDS-751 (Molecular Probes), a nucleic acid stain, allowing a cytometer threshold setting to exclude red blood cells. […]

[5] = target: T2, CXCR1 receptor (Homo sapiens, UniProt P25024); assay: GPCR Arrestin Assay (DiscoveRX PathHunter), CXCR1; assay type: cell-based; set-up: host or cells: PathHunter CHO cell lines; details: PathHunter CHO cells, agonist at EC80; read-out: pIC50 against the CXCR1 receptor (converted)
T2 sequence (P25024 1-350): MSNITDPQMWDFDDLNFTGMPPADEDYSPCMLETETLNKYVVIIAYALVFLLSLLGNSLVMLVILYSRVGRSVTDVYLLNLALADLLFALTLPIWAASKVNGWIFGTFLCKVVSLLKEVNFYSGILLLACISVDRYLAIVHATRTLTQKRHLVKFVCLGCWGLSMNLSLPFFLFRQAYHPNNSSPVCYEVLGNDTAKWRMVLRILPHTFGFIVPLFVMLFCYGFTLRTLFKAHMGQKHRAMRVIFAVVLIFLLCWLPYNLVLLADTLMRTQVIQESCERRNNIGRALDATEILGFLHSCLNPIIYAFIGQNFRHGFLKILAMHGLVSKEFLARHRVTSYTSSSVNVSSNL
Experimental: Certain compounds of the invention were also tested by DiscoveRX Corporation (42501 Albrae Street, Fremont, Calif. 94538, United States) in their GPCR Arrestin Assay to determine their activity against a panel of receptors including CXCR2 and CXCR1. PathHunter CHO cell lines were expanded from freezer stocks according to standard procedures. Cells were seeded in a total volume of 20 μL into white walled, 384-well microplates and incubated at 37° C. for the appropriate time prior to testing. The cells were pre-incubated with antagonist followed by agonist challenge at the EC80 concentration. Intermediate dilution of sample stocks was performed to generate 5× sample in assay buffer. 5 μL of 5× sample was added to cells and incubated at 37° C. or room temperature for 30 minutes. […] Assay signal was generated through a single addition of 12.5 or 15 μL (50% v/v) of PathHunter Detection reagent cocktail, followed by one hour incubation at room temperature. Microplates were read following signal generation with a PerkinElmer Envision™ instrument for chemiluminescent signal detection. Compound activity was analyzed using CBIS data analysis suite (ChemInnovation, Calif.).

Row | SMILES | IC50 [1] [nM] | IC50 ([2]; [125I] IL-8 binding, CHO-CXCR2 membranes, read-out: pIC50 against the CXCR2 receptor (converted)) [nM] | selectivity for CXCR2 over CXCR1 ([2]; receptor binding assay a)) [fold] | oxaliplatin induced mechanical allodynia (PWT) vs oxaliplatin and vehicle group ([3]; Day 3, 5, 20 and 50 mg/kg p.o. b.i.d. from Day -1) | oxaliplatin induced mechanical allodynia (PWT) vs oxaliplatin and vehicle group ([3]; Day 7, 20 and 50 mg/kg p.o. b.i.d. only) | IC50 [4] [nM] | IC50 [5] [nM]
1 | O=C(Nc1ccc(Cl)c(S(=O)(=O)N2CCNCC2)c1O)Nc1cccc(F)c1Cl [Compound of Formula (A), 1-(4-chloro-2-hydroxy-3-(piperazin-1-ylsulfonyl)phenyl)-3-(2-chloro-3-fluorophenyl)urea] | 0.631 | 15.8 | 188 | reduced the mechanical allodynia | robust reduction of the mechanical allodynia | 2000 | –
2 | CN1CCC(C)(S(=O)(=O)c2c(Cl)ccc(NC(=O)Nc3cccc(F)c3Cl)c2O)CC1 [Compound of Formula (D), 1-(4-chloro-3-((1,4-dimethylpiperidin-4-yl)sulfonyl)-2-hydroxyphenyl)-3-(2-chloro-3-fluorophenyl)urea] | 1.26 | – | – | – | – | 3980 | 2510
